Measured values: patent publication US9695191B2, “Conformationally constrained, fully synthetic macrocyclic compounds” (POLYPHOR AG, priority 2009, dated 2017)

How the values were obtained:
[1] = Metabolic stability, human microsomes; format: in vitro ADME; conditions: 37° C.; for Metabolic Stability 60 min hum: % of the initial 0 minutes value at 60 min, 10 μM; for Metabolic Stability T ½ [min] hum: 10 μM compound, 1 mg/ml microsomal protein, sampling up to 60 min
Experimental: (§1) Microsomes from a human 50 donor mixed gender pool and 1:1 mixtures of microsomes from CD-1 mouse single-gender pools are purchased from Celsis (Belgium). The enzymatic reaction is performed in a buffer containing an NADPH regeneration system and microsomes with the following end concentrations: 100 mM potassium phosphate buffer (all from Sigma), 1 mg/mL glucose-6-phosphate, 1 mg/mL β-nicotinamide adenine dinucleotide phosphate (NADP), 0.65 mg/mL magnesium chloride, 0.8 units/mL of glucose-6-phosphate dehydrogenase (prediluted with 5 mM citrate buffer), 10 μM compound and 1 mg/ml microsomal protein. Compounds are incubated at 37° C. in duplicates and samples are taken after 0, 20 and 60 minutes. After acetonitrile precipitation (2 volumes) and HPLC/MS/MS analysis metabolic turnover is expressed in % of the initial 0 minutes value and half life T½ (min) is calculated. Verapamil for human and propranolol for mouse are used as reference and are assayed with every experimental set. • F. P. Guengerich, Analysis and Characterization of Enzymes; in: Principles and Methods of Toxicology; A. W. Hayes (Ed.) Raven Press: New York, 1989, 777-813. • R. Singh et al., In vitro metabolism of a potent HIV-protease inhibitor (141W94) using rat, monkey and human liver S9, Rapid Commun. Mass Spectrom. 1996, 10, 1019-1026. 5. Results

[2] = Metabolic stability, CD-1 mouse microsomes; format: in vitro ADME; conditions: 37° C.; for Metabolic Stability 60 min mouse: % of the initial 0 minutes value at 60 min, 10 μM; for Metabolic Stability T ½ [min] mouse: 10 μM compound, 1 mg/ml microsomal protein, sampling up to 60 min
Experimental: as §1

[3] = human, 10 μM
Experimental: (§2) Example compounds were dissolved in DMSO/H2O 90:10 to a final concentration of 10 mM for plasma stability determination and metabolic stability determination.
(§3) Human plasma (3-5 donors, Blutspendedienst SRK, Basel) and CD-1 mouse plasma (mixed gender pool>50 animals, Innovative Research, CA, USA) are both sodium citrate stabilized. The assay is performed in triplicates at 10 μM compound concentration and 37° C. Samples are taken at 0, 15, 60, and 240 minutes and stopped by precipitation with 2 volumes of acetonitrile. The supernatant is collected, evaporated and reconstituted in a 5% acetonitrile solution to be analyzed by HPLC/MS/MS. The resulting peak area counts are expressed in percent of the 0 value and used to determine the endpoint stability in % and the half life T½ in minutes. In order to monitor assay integrity the degradation of propantheline is assayed with every experimental set

[4] = both, CD-1, mouse, 10 μM
Experimental: as §2, §3

| SMILES | Metabolic Stability 60 min hum [1] [%] | Metabolic Stability 60 min mouse [2] [%] | Plasma Stability 240 min hum [3] [%] | Plasma Stability 240 min mouse [4] [%] | Metabolic Stability T ½ [min] hum [1] [min] | Metabolic Stability T ½ [min] mouse [2] [min] |
| --- | --- | --- | --- | --- | --- | --- |
| CNC(=O)[C@H]1CCC(=O)N(C)CC(=O)N2C[C@@H](NC(=O)Cc3ccc4ccccc4c3)C[C@H]2COc2ccc(F)cc2C(=O)N1C [Ex. 93, (2S,11R,19aS)-15-fluoro-N,7,12-trimethyl-2-{[2-(2-naphthyl)acetyl]amino}-5,8,13-trioxo-2,3,6,7,8,9,10,11,12,13,19,19a-dodecahydro-1H,5H-pyrrolo[2,1-c][1,4,7,12] benzoxatriazacyclopentadecine-11-carboxamide] | 1 | 15 | 100 | 100 | – | – |
| CN(C)CCNC(=O)[C@@H]1CCC(=O)N(C)CC(=O)N2C[C@@H](NC(=O)Cc3cccc4ccccc34)C[C@H]2COc2ccc(F)cc2C(=O)N1C [Ex. 49, (2S,11S,19aS)-N-[2-(dimethylamino)ethyl]-15-fluoro-7,12-dimethyl-2-{[2-(1-naphthyl)acetyl]amino}-5,8,13-trioxo-2,3,6,7,8,9,10,11,12,13,19,19a-dodecahydro-1H,5H-pyrrolo[2,1-c][1,4,7,12]benzoxatriazacyclopentadecine-11-carboxamide] | 10 | 83 | 83 | 96 | – | – |
| CCCCC(=O)N[C@@H]1C[C@H]2COc3ccc(F)cc3C(=O)N(C)[C@H](C(=O)N(C)CCN(C)C)CCC(=O)N(C)CC(=O)N2C1 [Ex. 78, (2R,11S,19aS)-N-[2-(dimethylamino)ethyl]-15-fluoro-N,7,12-trimethyl-5,8,13-trioxo-2-(pentanoylamino)-2,3,6,7,8,9,10,11,12,13,19,19a-dodecahydro-1H,5H-pyrrolo[2,1-c][1,4,7,12]benzoxatriazacyclopentadecine-11-carboxamide] | 78 | 100 | 65 | 100 | – | – |
| CN1CC(=O)N2C[C@H](NC(=O)CCC(=O)O)C[C@H]2COc2ccc(cc2)C(=O)N(C)[C@H](C(=O)NCc2ccncc2)CCC1=O [Ex. 267, 4-{[(4S,6R,15S)-11,16-dimethyl-9,12,17-trioxo-15-{[(4-pyridinylmethyl)amino]carbonyl}-2-oxa-8,11,16-triazatricyclo [16.2.2.0^4,8]docosa-1(20),18,21-trien-6-yl]amino}-4-oxobutanoic acid] | 99 | 100 | 75 | 79 | – | – |
| CC(=O)N[C@H]1C[C@H]2COc3ccc(F)cc3C(=O)N(C)[C@H](C(=O)N3CCCC3)CCC(=O)N(C)CC(=O)N2C1 [Ex. 37, N-[(2S,11S,19aS)-15-fluoro-7,12-dimethyl-5,8,13-trioxo-11-(1-pyrrolidinylcarbonyl)-2,3,6,7,8,9,10,11,12,13,19,19a-dodecahydro-1H,5H-pyrrolo[2,1-c][1,4,7,12]benzoxatriazacyclopentadecin-2-yl]acetamide] | 100 | 100 | 77 | 100 | 60 | 60 |
| CC(=O)N[C@H]1CN(C)C(=O)c2cccc(c2)OC[C@@H]2C[C@H](NC(=O)CN(C)C)CN2C(=O)CN(C)C1=O [Ex. 208, N-[(4S,6S,13S)-13-(acetylamino)-11,15-dimethyl-9,12,16-trioxo-2-oxa-8,11,15-triazatricyclo[15.3.1.0^4,8]henicosa-1(21),17,19-trien-6-yl]-2-(dimethylamino)acetamide] | 84 | 100 | 98 | 90 | – | – |
| CN(C)CC(=O)N[C@@H]1C[C@H]2COc3cccc(c3)C(=O)N(C)C[C@H](NC(=O)Cc3ccc4ccccc4c3)C(=O)N(C)CC(=O)N2C1 [Ex. 230, 2-(dimethylamino)-N-[(4S,6R,13S)-11,15-dimethyl-13-{[2-(2-naphthyl)acetyl]amino}-9,12,16-trioxo-2-oxa-8,11,15-triazatricyclo[15.3.1.0^4,8]henicosa-1(21),17,19-trien-6-yl]acetamide] | 61 | 90 | 100 | 95 | – | – |
| CN1CC(=O)N2C[C@H](NC(=O)Cc3ccc4ccccc4c3)C[C@H]2COc2ccc(cc2)C(=O)N(C)[C@H](C(=O)N2CCCC2)CCC1=O [Ex. 264, N-[(4S,6R,15S)-11,16-dimethyl-9,12,17-trioxo-15-(1-pyrrolidinylcarbonyl)-2-oxa-8,11,16-triazatricyclo[16.2.2.0^4,8]docosa-1(20),18,21-trien-6-yl]-2-(2-naphthyl)acetamide] | – | 32 | 94 | 88 | – | – |
| CN1CC(=O)N2C[C@H](NC(=O)CCc3ccncc3)C[C@H]2COc2ccc(cc2)C(=O)N(C)[C@H](C(=O)NCc2ccc3ccccc3c2)CCC1=O [Ex. 260, (4S,6R,15S)-11,16-dimethyl-N-(2-naphthylmethyl)-9,12,17-trioxo-6-{[3-(4-pyridinyl)propanoyl]amino}-2-oxa-8,11,16-triazatricyclo[16.2.2.0^4,8]docosa-1(20),18,21-triene-15-carboxamide] | 19 | 69 | 100 | 100 | – | – |
| CN1CC(=O)N2C[C@@H](NC(=O)CCC(=O)O)C[C@H]2COc2ccc(F)cc2C(=O)N(C)[C@@H](C(=O)NCc2ccc3ccccc3c2)CCC1=O [Ex. 95, 4-[((2S,11R,19aS)-15-fluoro-7,12-dimethyl-11-{[(2-naphthylmethyl)amino]carbonyl}-5,8,13-trioxo-2,3,6,7,8,9,10,11,12,13,19,19a-dodecahydro-1H,5H-pyrrolo [2,1-c][1,4,7,12]benzoxatriazacyclopentadecin-2-yl)amino]-4-oxobutanoic acid] | 76 | 94 | 100 | 93 | 60 | 60 |
| CCCCCCCCCC(=O)N[C@H]1CN(C)C(=O)c2cccc(c2)OC[C@@H]2C[C@H](NC(=O)Cc3c[nH]c4ccccc34)CN2C(=O)CN(C)C1=O [Ex. 213, N-[(4S,6S,13S)-6-{[2-(1H-indol-3-yl)acetyl]amino)-11,15-dimethyl-9,12,16-trioxo-2-oxa-8,11,15-triazatricyclo[15.3.1.0^4,8]henicosa-1(21),17,19-trien-13-yl]decanamide] | 0 | 4 | – | – | – | – |
| CCN(CC)[C@H]1C[C@H]2COc3ccc(F)cc3C(=O)N(C)[C@H](C(=O)N3CCCC3)CCC(=O)N(C)CC(=O)N2C1 [Ex. 43, (2S,11S,19aS)-2-(diethylamino)-15-fluoro-7,12-dimethyl-11-(1-pyrrolidinylcarbonyl)-2,3,6,7,9,10,11,12,19,19a-decahydro-1H,5H-pyrrolo[2,1-c][1,4,7,12] benzoxatriazacyclopentadecine-5,8,13-trione] | 100 | 98 | 82 | 89 | – | – |
| CN1CCC[C@H](NC(=O)OCc2ccccc2)C(=O)N2C[C@@H](NC(=O)Cc3ccc4ccccc4c3)C[C@H]2COc2cccc(c2)C1=O [Ex. 184, benzyl N-[(4S,6S,10S)-14-methyl-6-{[2-(2-naphthyl)acetyl]amino}-9,15-dioxo-2-oxa-8,14-diazatricyclo[14.3.1.0^4,8]icosa-1(20),16,18-trien-10-yl]carbamate] | 0 | 0 | 66 | 58 | – | – |
| CCN(CC)[C@@H]1C[C@H]2COc3ccc(cc3)C(=O)N(C)[C@H](C(=O)NCc3ccc4ccccc4c3)CCC(=O)N(C)CC(=O)N2C1 [Ex. 262, (4S,6R,15S)-6-(diethylamino)-11,16-dimethyl-N-(2-naphthylmethyl)-9,12,17-trioxo-2-oxa-8,11,16-triazatricyclo [16.2.2.0^4,8]docosa-1(20),18,21-triene-15-carboxamide] | 0 | 4 | 100 | 93 | – | – |
| CN1CC(=O)N2C[C@@H](N)C[C@H]2COc2ccc(F)cc2C(=O)N(C)[C@@H](C(=O)NCc2ccc3ccccc3c2)CCC1=O [Ex. 91, (2S,11R,19aS)-2-amino-15-fluoro-7,12-dimethyl-N-(2-naphthylmethyl)-5,8,13-trioxo-2,3,6,7,8,9,10,11,12,13,19,19a-dodecahydro-1H,5H-pyrrolo[2,1-c][1,4,7,12] benzoxatriazacyclopentadecine-11-carboxamide] | 91 | 95 | 96 | 88 | – | – |
